The subject of test [1] is Human immunodeficiency virus 1. The test can be described thus: Antiviral potency was assessed by measuring the effect on accumulation of viral RNA transcripts 3 days after infection of MT-2 cells with HIV-1 RF. The following applies: Human immunodeficiency virus 1, MT2, 72 h. It counts as functional, MT2.
In test [2] the target is Human immunodeficiency virus type 1 protease (Human immunodeficiency virus 1, UniProt Q72874). The test can be described thus: Inhibitory activity against HIV protease.
The target in test [3] is Human immunodeficiency virus type 1 protease (Human immunodeficiency virus 1) (UniProt Q72874). Nature of the test: Ability to increase whole-cell antiviral efficacy through better translation defined as the ratio between IC90 and Ki. In kind it is functional.

As a reminder, the IC90 is the concentration at which the effect reaches the 90% level. A low value points to an effect from little substance. The term Ki denotes a measure of affinity in units of concentration, obtained from inhibition or displacement. Low readings indicate tighter binding, high ones weaker binding. For `COc1cc(C[C@@H]2[C@H](O)[C@@H](O)[C@@H](Cc3cc(OC)cc(OC)c3)N(CC3CC3)C(=O)N2CC2CC2)cc(OC)c1`, in test [1], the IC90 came out at 380 nM. The compound also showed a Ki in test [2] of 2.7 nM. Moreover, in test [3], the Ratio came out at 140.

The compound `O=C1N(Cc2ccccc2)[C@H](Cc2ccoc2)[C@H](O)[C@@H](O)[C@@H](Cc2ccoc2)N1Cc1ccccc1` yielded an IC90 in test [1] of 7800 nM. Also, affinity in test [2] was put at a Ki of 8.4 nM. Moreover, the Ratio in test [3] was determined as 920.

In the case of `O=C1N(Cc2ccccc2)[C@H](Cc2ccccc2)[C@H](O)[C@@H](O)[C@@H](Cc2ccccc2)N1Cc1ccccc1`, the IC90 in test [1] is 790 nM. The compound also came in with a Ki in test [2] of 3.4 nM. For the same compound, the Ratio in test [3] was 230.

`O=C1N(CC2CC2)[C@H](Cc2cccc(O)c2)[C@H](O)[C@@H](O)[C@@H](Cc2cccc(O)c2)N1CC1CC1`: it took 2570 nM to reach the 90% level in test [1] (IC90). The same compound registered a Ki in test [2] of 13 nM. Besides, the Ratio in test [3] turned out to be 200.

Compound `CN(C)c1cccc(C[C@@H]2[C@H](O)[C@@H](O)[C@@H](Cc3cccc(N(C)C)c3)N(Cc3ccccc3)C(=O)N2Cc2ccccc2)c1` yielded an IC90 in test [1] of 1200 nM. Further, the Ki in test [2] worked out at 4.3 nM. In test [3], the Ratio is 280.

As for `CSc1cccc(C[C@@H]2[C@H](O)[C@@H](O)[C@@H](Cc3cccc(SC)c3)N(Cc3ccccc3)C(=O)N2Cc2ccccc2)c1`, in test [1], the IC90 worked out at 4170 nM. In addition, in test [2], the affinity corresponds to a Ki of 2.5 nM. Also, the Ratio in test [3] is 1700.

Take `CN(C)c1ccc(C[C@@H]2[C@H](O)[C@@H](O)[C@@H](Cc3ccc(N(C)C)cc3)N(Cc3ccccc3)C(=O)N2Cc2ccccc2)cc1`: the 90% effect level in test [1] (IC90) was put at 2700 nM. This compound registered a Ki in test [2] of 46 nM. In addition, the Ratio in test [3] is 60.

`O=C1N(Cc2ccccc2)[C@H](Cc2ccc(O)cc2)[C@H](O)[C@@H](O)[C@@H](Cc2ccc(O)cc2)N1Cc1ccccc1` registered an IC90 in test [1] of 185 nM. This compound yielded a Ki in test [2] of 1.1 nM. The Ratio in test [3] was 170.

In test [1], `CSc1ccc(C[C@@H]2[C@H](O)[C@@H](O)[C@@H](Cc3ccc(SC)cc3)N(Cc3ccccc3)C(=O)N2Cc2ccccc2)cc1` yielded an IC90 of 1300 nM. In test [2], this compound showed a Ki of 3.4 nM. Moreover, the Ratio in test [3] stood at 380.

The compound `COc1cccc(C[C@@H]2[C@H](O)[C@@H](O)[C@@H](Cc3cccc(OC)c3)N(CC3CC3)C(=O)N2CC2CC2)c1` had an IC90 in test [1] of 650 nM. The compound further had a Ki in test [2] of 0.87 nM. Also, in test [3], the Ratio turned out to be 750.

In test [1], `COc1ccc(C[C@@H]2[C@H](O)[C@@H](O)[C@@H](Cc3ccc(OC)cc3)N(Cc3ccccc3)C(=O)N2Cc2ccccc2)cc1` gave an IC90 of 600 nM. In test [2], this compound gave a Ki of 8.6 nM. Besides, the Ratio in test [3] was 70.

In test [1], `O=C1N(Cc2ccccc2)[C@H](Cc2ccc3ccccc3c2)[C@H](O)[C@@H](O)[C@@H](Cc2ccc3ccccc3c2)N1Cc1ccccc1` had an IC90 of 3300 nM. In test [2], the Ki amounted to 9.8 nM. Besides, the Ratio in test [3] is 340.

Compound `COc1cccc(C[C@@H]2[C@H](O)[C@@H](O)[C@@H](Cc3cccc(OC)c3)N(Cc3ccc(CO)cc3)C(=O)N2Cc2ccc(CO)cc2)c1` had an IC90 in test [1] of 37 nM. Moreover, affinity in test [2] was put at a Ki of 0.11 nM. Further, the Ratio in test [3] worked out at 340.

Regarding `Nc1cccc(C[C@@H]2[C@H](O)[C@@H](O)[C@@H](Cc3cccc(N)c3)N(Cc3ccccc3)C(=O)N2Cc2ccccc2)c1`, in test [1], the IC90 came out at 1300 nM. The compound further yielded a Ki in test [2] of 2.8 nM. Besides, in test [3], the Ratio was 460.

The compound `CS(=O)(=O)c1ccc(C[C@@H]2[C@H](O)[C@@H](O)[C@@H](Cc3ccc(S(C)(=O)=O)cc3)N(Cc3ccccc3)C(=O)N2Cc2ccccc2)cc1` had an IC90 in test [1] of 470 nM. Besides, the affinity in test [2] corresponds to a Ki of 2.5 nM. In test [3], the Ratio worked out at 190.

The compound `COc1ccccc1C[C@@H]1[C@H](O)[C@@H](O)[C@@H](Cc2ccccc2OC)N(Cc2ccccc2)C(=O)N1Cc1ccccc1` had an IC90 in test [1] of 8800 nM. The compound further returned a Ki in test [2] of 60 nM. Further, the Ratio in test [3] came to 150.

As for `O=C1N(Cc2ccc(CO)cc2)[C@H](Cc2ccccc2)[C@H](O)[C@@H](O)[C@@H](Cc2ccccc2)N1Cc1ccc(CO)cc1` [DMP-323], the IC90 in test [1] was 136 nM. For the same compound, in test [2], the Ki came to 0.27 nM. Further, in test [3], the Ratio was determined as 500.

For `O=C1N(Cc2ccccc2)[C@H](Cc2ccccc2O)[C@H](O)[C@@H](O)[C@@H](Cc2ccccc2O)N1Cc1ccccc1`, the IC90 in test [1] is 6500 nM. The Ki in test [2] is 35 nM. Further, the Ratio in test [3] came to 185.

As to `O=C1N(CC2CC2)[C@H](Cc2cccs2)[C@H](O)[C@@H](O)[C@@H](Cc2cccs2)N1CC1CC1`, the 90% effect level in test [1] (IC90) was put at 7800 nM. In test [2], this compound had a Ki of 9.1 nM. For the same compound, the Ratio in test [3] was determined as 860.

In test [1], `O=C1N(Cc2ccc(CO)cc2)[C@H](Cc2ccc(F)c(F)c2)[C@H](O)[C@@H](O)[C@@H](Cc2ccc(F)c(F)c2)N1Cc1ccc(CO)cc1` had an IC90 of 36 nM. The same compound showed a Ki in test [2] of 0.47 nM. In addition, the Ratio in test [3] came out at 76.

`COc1ccc(C[C@@H]2[C@H](O)[C@@H](O)[C@@H](Cc3ccc(OC)cc3)N(Cc3ccc(CO)cc3)C(=O)N2Cc2ccc(CO)cc2)cc1`: the IC90 in test [1] was 56 nM. This compound displayed a Ki in test [2] of 0.24 nM. For the same compound, the Ratio in test [3] came out at 230.

For `COc1ccc(C[C@@H]2[C@H](O)[C@@H](O)[C@@H](Cc3ccc(OC)cc3)N(CC3CC3)C(=O)N2CC2CC2)cc1`, the IC90 in test [1] was 320 nM. In addition, affinity in test [2] was put at a Ki of 2.9 nM. In addition, in test [3], the Ratio was 110.

`O=C1N(CC2CC2)[C@H](Cc2ccc(F)cc2)[C@H](O)[C@@H](O)[C@@H](Cc2ccc(F)cc2)N1CC1CC1`: the IC90 in test [1] was 3200 nM. In test [2], this compound yielded a Ki of 5.8 nM. In test [3], the Ratio was 550.

Regarding `O=C1N(Cc2ccccc2)[C@H](Cc2ccc3c(c2)OCO3)[C@H](O)[C@@H](O)[C@@H](Cc2ccc3c(c2)OCO3)N1Cc1ccccc1`, in test [1], the IC90 was determined as 500 nM. The Ki in test [2] was determined as 1.3 nM. Moreover, the Ratio in test [3] came out at 385.

`COc1cccc(C[C@@H]2[C@H](O)[C@@H](O)[C@@H](Cc3cccc(OC)c3)N(Cc3ccccc3)C(=O)N2Cc2ccccc2)c1` returned an IC90 in test [1] of 350 nM. For the same compound, the Ki in test [2] is 4.7 nM. Also, the Ratio in test [3] worked out at 75.

`O=C1N(CC2CC2)[C@H](Cc2ccccc2)[C@H](O)[C@@H](O)[C@@H](Cc2ccccc2)N1CC1CC1` displayed an IC90 in test [1] of 1840 nM. This compound also showed a Ki in test [2] of 1.9 nM. Moreover, the Ratio in test [3] worked out at 970.

The compound `O=C1N(CC2CC2)[C@H](Cc2ccc3ccccc3c2)[C@H](O)[C@@H](O)[C@@H](Cc2ccc3ccccc3c2)N1CC1CC1` yielded a concentration for an effect of 90% (IC90) in test [1] of 3400 nM. The compound further displayed a Ki in test [2] of 4.3 nM. Also, the Ratio in test [3] is 790.

(Values after ChEMBL document CHEMBL1129785, “Preparation and structure-activity relationship of novel P1/P1'-substituted cyclic urea-based human immunodeficiency virus type-1 protease inhibitors” (J Med Chem, 1996).)
